This is an account of results in US4450160A, “1,2-Dihydropyrido[3,4-b]-pyrazines and method and intermediates for preparing same” (Southern Research Institute, priority 1982, dated 1984).

Usually ILS stands for how much longer treated animals lived than controls. The low end stands for little gain in survival, the high end for much gain in survival.

In series [1] the test system is leukemia L1210. As to conditions: mouse, in vivo; cited from earlier work.
Series [2] deals with KB cell culture. Conditions: abstract, Gatlinburg 1976; cited from earlier work.
For series [3], the system named is Lymphocytic leukemia P388. As to the kind of experiment: P388 lymphocytic leukemia, 10^6 tumor cell implant, i.p., % ILS. The format is in vivo, mice. From the text: (d) Lymphocytic leukemia p388. Geran, R. I., Greenberg, N. H., MacDonald,
M. M., Schulacker, A. M., Abott, B. J., Cancer Chemother. Rep., 1972, Par

In series [4] the test system is lymphoid leukemia L1210 cells. The series is described as follows: inhibition of proliferation of cultured lymphoid leukemia L1210 cells. The format is cell-based. Conditions: Mus musculus, concentration that inhibits proliferation to 50% of control growth, 24 hours, (g) = average of 2 determinations, read-out: L1210 ID50.
Text: (b) Concentration of agent that inhibits proliferation of cultured lymphoi
leukemia L1210 cells to 50% control growth.
In series [5] the test system is cultured lymphoid leukemia L1210 cells. As to the kind of experiment: Mitotic Index, fraction of cultured L1210 cells in mitoses (metaphase). The format is cell-based.
The subject of series [6] is Botrytis cinereae. As to the kind of experiment: antifungal activity. Format: cell-based. On the procedure: (§1) The 1,2-dihydropyrido[3,4-b]pyrazines at concentrations that prevented any increase in the cell number during a 24 hour period had little effect upon the synthesis of DNA, RNA, and protein by cultured L1210 cells during exposure for four hours. […] Exposure of cultured L1210 cells to the 1,2-dihydropyrido[3,4-b]pyrazines inhibited cell division as measured by the mitotic index (MI) (Table V), which is the fraction of the cell population that is made up of metaphase cells. […] For example, 5-amino-1,2-dihydro-3-phenylpyrido[3,4-b]pyrazin-7-ylcarbamate was active against Saccharomyces cerevisiae, Asperigillus niger, Penicillium italicum and Botrytis cinereae.

The subject of series [7] is Saccharomyces cerevisiae. As to the kind of experiment: antifungal activity. The format is cell-based. On the procedure:
as §1

In series [8] the test system is Asperigillus niger. The series is described as follows: antifungal activity. Format: cell-based. On the procedure:
as §1

Series [9] has as its system Penicillium italicum. The series is described as follows: antifungal activity. The format is cell-based. On the procedure: as §1
For series [10], the system named is P388 cells that were resistant to vincristine. As to the kind of experiment: vincristine-resistant line of P388 in mice. The format is in vivo. The source says:
(h) Vincristineresistant line of P388. Wilkoff, L. J. and Dulmadge, E. A.,

Setting [11] is: Mus musculus, P388, ip, i.p. implant, days 1-5.
[12] abbreviates: Mus musculus, P388, ip, i.p. implant, days 1-5, 10 mg/kg.
Where [13] appears, read: Mus musculus, P388, ip, i.p. implant, days 1-9.
Setting [14] is: Mus musculus, P388, ip, 24 h, i.p. implant, day 1.

Turning to `CCOC(=O)Nc1cc2c(c(N)n1)N=C(CN(C)c1ccc(C(=O)OC)cc1)CN2`, in series [1], the “activity against leukemia L1210 in mice” value is on record as “activity against leukemia L1210 in mice”. Moreover, the “cytotoxicity in the KB cell culture screen” value in series [2] is “showed cytotoxicity”.

As for `CCOC(=O)Nc1cc2c(c(N)n1)N=C(c1ccc(C)cc1C)CN2` [2,4-(CH3)2 C6 H3], in [3] (Mus musculus, P388, ip, i.p. implant, days 1-5, 20 mg/kg (highest dose tested)), the ILS at 20 mg/kg came out at 23%. The IC50 in series [4] was 42 nM. For the same compound, in series [5] (0.1 μM), the “Mitotic Index 12h” value is 0.66.

The compound `CCOC(=O)Nc1cc2c(c(N)n1)N=C(c1ccc(Cl)cc1Cl)CN2` [2,4-Cl2 C6 H3] yielded an ILS at 12.5 mg/kg in [3] (setting [11]) of 49%. For the same compound, the IC50 in [4] was found to be 44 nM. Also, in series [5] (0.3 μM), the “Mitotic Index 24h” value is given as 0.20.

Regarding `CCOC(=O)Nc1cc2c(c(N)n1)N=C(c1ccc3ccccc3c1)CN2` [2-C10 H7], the ILS at 5 mg/kg in [3] (Mus musculus, P388, ip, i.p. implant, days 1-5, 5 mg/kg) is 53%. This compound showed an ILS at 10 mg/kg in series [3] (setting [12]) of 66%. Also, the 30th-day survivor result in series [3] (days 1-5, 10 mg/kg) was “One”. For the same compound, the IC50 in [4] turned out to be 6 nM. The “Mitotic Index 12h” value in [5] (0.03 μM) stood at 0.60.

In the case of `CCOC(=O)Nc1cc2c(c(N)n1)N=C(c1cc(OC)c(OC)c(OC)c1)CN2` [3,4,5-(CH3 O)3 C6 H2], the “Mitotic Index 12h” value in series [5] (0.3 μM) was 0.41.

In series [3] (setting [11]), `CCOC(=O)Nc1cc2c(c(N)n1)N=C(c1ccc(C)c(C)c1)CN2` [3,4-(CH3)2 C 6 H3] yielded an ILS at 12.5 mg/kg of 44%. The IC50 in series [4] stood at 138 nM. In addition, the “Mitotic Index 24h” value in [5] (0.3 μM) was determined as 0.16.

Turning to `CCOC(=O)Nc1cc2c(c(N)n1)N=C(c1ccc(Cl)c(Cl)c1)CN2` [3,4-Cl2 C6 H3], in [3] (setting [12]), the increase in lifespan (ILS) at 10 mg/kg was 58%. Further, in [4], the IC50 was determined as 18 nM. In addition, the “Mitotic Index 12h” value in series [5] (0.01 μM) is 0.69; in series [5] (0.03 μM), 0.53.

With `CCOC(=O)Nc1cc2c(c(N)n1)N=C(c1cccc(OC)c1)CN2` [3-CH3 OC6 H4], the IC50 in [4] stood at 1.22 nM. Besides, the “Mitotic Index 12h” value in series [5] (0.003 μM) worked out at 0.56.

For the compound `CCOC(=O)Nc1cc2c(c(N)n1)N=C(c1ccc(C(F)(F)F)cc1)CN2` [4-CF3 C6 H4, ethyl 5-amino-1,2-dihydro-3-[4'-(trifluoromethyl)phenyl]pyrido[3,4-b]pyrazin-7-ylcarbamate], the ILS at 90 mg/kg in [3] (Mus musculus, P388, ip, 24 h, i.p. implant, day 1, 90 mg/kg (highest dose tested)) was found to be 0%. In series [3] (Mus musculus, P388, ip, i.p. implant, days 1,5,9, 30 mg/kg (highest dose tested)), the ILS at 30 mg/kg amounted to 0%. The compound further had an ILS at 50 mg/kg in [3] (setting [13]) of 17%. Moreover, in [4], the IC50 was 150 nM. For the same compound, the “Mitotic Index 24h” value in [5] (0.3 μM) is listed as 0.01.

Regarding `CCOC(=O)Nc1cc2c(c(N)n1)N=C(c1ccc(C)cc1)CN2` [4-CH3 C6 H4], the ILS at 12 mg/kg in series [3] (Mus musculus, P388, ip, i.p. implant, days 1-5, 12 mg/kg) came to 30%. Moreover, the IC50 in series [4] is 24 nM. Also, the “Mitotic Index 24h” value in series [5] (0.3 μM) is 0.22.

As for `CCOC(=O)Nc1cc2c(c(N)n1)N=C(c1ccc(OC)cc1)CN2` [4-CH3 OC6 H4], the ILS at 25 mg/kg in series [3] (setting [14]) was found to be 50%; in [3] (Mus musculus, P388, ip, i.p. implant, days 1,5,9) it was 63%. In series [3] (setting [13]), this compound had an ILS at 3 mg/kg of 35%. In series [4], the IC50 is 4.1 nM. Also, in series [5] (0.3 μM), the “Mitotic Index 24h” value is 0.27.

`CCOC(=O)Nc1cc2c(c(N)n1)N=C(c1ccc(F)cc1)CN2` [4-FC6 H4] showed an increase in life span (ILS) at 3 mg/kg in series [3] (setting [11]) of 49%. The IC50 in series [4] is 6.8 nM. The “Mitotic Index 12h” value in series [5] (0.01 μM) amounted to 0.47.

Compound `CCOC(=O)Nc1cc2c(c(N)n1)N=C(c1ccc(N)cc1)CN2` [4-H2 NC6 H4] showed an ILS at 50 mg/kg in [3] (setting [14]) of 35%. Further, the IC50 in [4] is 23 nM. Further, the “Mitotic Index 24h” value in [5] (0.3 μM) worked out at 0.19.

On to `CCOC(=O)Nc1cc2c(c(N)n1)N=C(c1ccccc1)CN2` [C6 H5, Ethyl 5-Amino-1,2-dihydro-3-phenylpyrido(3,4-b)pyrazin-7-ylcarbamate], for which the ILS at 12.5 mg/kg in [3] (Mus musculus, P388, ip, 24 h, i.p. implant, day 1, average of 2 determinations) amounted to 55%. Also, the ILS at 4.5 mg/kg in [3] (Mus musculus, P388, ip, i.p. implant, days 1,5,9, 4.5 mg/kg) was 42%. In series [3] (Mus musculus, P388, ip, i.p. implant, days 1-9, 2 mg/kg), this compound returned an ILS at 2 mg/kg of 51%. Also, the antifungal activity entry in series [6], in series [7], in series [8] and in series [9] was “active” each time. For the same compound, the “activity against P388 cells resistant to vincristine (in words)” value in series [10] (in mice) is on record as “active in mice against P388 cells that were resistant to vincristine”. The “P388 % ILS” value in series [10] (vincristine-resistant line of P388, day 1, 12 mg/kg) is 50%. Further, in series [4], the IC50 was 4.7 nM. Also, the “Mitotic Index 12h” value in series [5] (0.03 μM) stood at 0.65. Besides, the “Mitotic Index 24h” value in [5] (0.3 μM) is recorded as 0.54.

Take `CCOC(=O)Nc1cc2c(c(N)n1)N=C(c1ccccc1)CN2C` [C6 H5, R3 = CH3]: the ILS at 100 mg/kg in series [3] (Mus musculus, P388, ip, 24 h, i.p. implant, day 1, 100 mg/kg) was 12%. Also, the IC50 in series [4] amounted to 160 nM. Also, in series [5] (0.3 μM), the “Mitotic Index 12h” value is 0.68.

Turning to `CCOC(=O)Nc1cc2c(c(N)n1)N=C(c1ccccc1)C(C)N2` (centres unmarked) [C6 H5, R4 = CH3], in series [4], the IC50 is 0.51 nM. The “Mitotic Index 12h” value in series [5] (0.003 μM) was determined as 0.69.

With `COC(=O)Nc1nc2ccc(C(=O)c3cccs3)cc2[nH]1` [Nocodazole, reference compound], in [4], the IC50 was found to be 27 nM. Besides, in series [5] (0.3 μM), the “Mitotic Index 24h” value was 0.19.

For the compound `CC[C@]1(O)C[C@H]2CN(CCc3c([nH]c4ccccc34)[C@@](C(=O)OC)(c3cc4c(cc3OC)N(C=O)[C@H]3[C@@](O)(C(=O)OC)[C@H](OC(C)=O)[C@]5(CC)C=CCN6CC[C@]43[C@@H]65)C2)C1` [Vincristine, reference compound], the ILS at 2.7 mg/kg in [3] (Mus musculus, P388, ip, 24 h, i.p. implant, day 1, 2.7 mg/kg) is 100%. The same compound yielded an ILS at 1.3 mg/kg in series [3] (Mus musculus, P388, ip, i.p. implant, days 1,5,9, 1.3 mg/kg) of 181%. Moreover, the ILS at 0.33 mg/kg in [3] (Mus musculus, P388, ip, i.p. implant, days 1-9, 0.33 mg/kg) is 145%. The 40th-day survivors entry in series [3] (day 1, 2.7 mg/kg) is “Two”; in [3] (days 1,5,9, 1.3 mg/kg), “Three”; in [3] (days 1-9, 0.33 mg/kg), “Three”. The IC50 in [4] is under 1 nM.
